# Measurements as given in paper PMC3528769, “Comparative Study of the Fatty Acid Binding Process of a New FABP from Cherax quadricarinatus by Fluorescence Intensity, Lifetime and Anisotropy” (PLoS ONE, 2012).
# Biological target: Cq-FABP (Cherax quadricarinatus, UniProt L0I6Z9)
# Experiment: Time-resolved Trp fluorescence lifetime (single-photon counting) with ANS and PA
# Format: binding
# Conditions: for FRET efficiency: from lifetimes
# Description: The distribution of fluorescence lifetimes of tryptophan was determined by monitoring the intensity decay, I(t), using the single-photon counting technique [27]–[31]. Briefly, the excitation light pulse source was a Ti:sapphire laser (Mai Tai femtosecond laser, Spectra Physics, Mountain View, CA, USA) associated with a third harmonic generator tuned to 296 nm. The laser frequency was reduced from 80 to 8 MHz using a pulse picker (Spectra Physics). Fluorescence emission was detected by a microchannel plate photomultiplier (Hamamatsu model R3809U-05) through a monochromator (ARC SpectraPro-150) set at 340 nm (Δλ = 15 nm) with the emission polarizer set at the magic angle (54.7°). A time-correlated single-photon counting SPC-430 card (Becker–Hickl, Berlin, Germany) was used for the acquisition. Experiments were performed at 25°C using 5 µM Cq-FABP in buffer C. The average fluorescence lifetime values (τm), as reported in Table 1, were calculated from the lifetime distributions recovered by the maximum entropy method, [29], [32]. For example, Cq-FABP alone was characterized by three fluorescence lifetimes (τ1 = 0.6 ns (6%), τ2 = 2.67 ns (53%), τ3 = 3.89 (41%); τm = 3.04 ns).
# [1] = 5 µM Cq-FABP + 50 µM ANS + 70 µM PA
# [2] = 5 µM Cq-FABP + 200 µM ANS + 70 µM PA
# Cq-FABP, sequence (L0I6Z9 entry or part of it): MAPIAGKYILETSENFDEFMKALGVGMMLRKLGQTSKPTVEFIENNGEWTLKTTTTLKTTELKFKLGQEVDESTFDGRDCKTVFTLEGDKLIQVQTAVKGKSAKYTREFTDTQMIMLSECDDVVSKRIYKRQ
structure (smiles),measurement,setting,value
"CCCCCCCCCCCCCCCC(=O)O [PA, Palmitic acid]","Average fluorescence Lifetime, τm",[1],2.77 ns
same,FRET efficiency,[1],8.9%
same,"Average fluorescence Lifetime, τm",5 µM Cq-FABP + 70 µM PA,2.96 ns
same,"Average fluorescence Lifetime, τm",[2],2.34 ns
same,FRET efficiency,[2],23%
